Structures can show the parent of a compound that is named as a salt.
`CC(C)S(=O)(=O)c1ccc2c(c1)nc(CC1CC1)n2CC1CC1` showed a melting point of 107 °C.
Compound `CC(C)S(=O)(=O)c1ccc2c(c1)nc(CC1CCCC1)n2CC1CC1` has a melting point of 137 °C.
For `CC(C)S(=O)(=O)c1ccc2c(c1)nc(CC1(C)CCCC1)n2CC1CC1`, the melting point was 122 °C.
Compound `CC(C)(C)Cc1nc2cc(S(=O)(=O)c3ccccc3)ccc2n1CC1CC1` has a melting point of 173 °C.
`CCS(=O)(=O)c1ccc2c(c1)nc(CC(C)(C)C)n2CC1CCCO1` (stereo not drawn) showed a melting point of 142 °C.
Work on `CC(C)S(=O)(=O)c1ccc2c(c1)nc(CC(C)(C)C)n2CC1(O)CCOCC1` yielded a melting point of 189 °C.
Work on `CCS(=O)(=O)c1ccc2c(c1)nc(CC(C)(C)C)n2CC1(O)CCCC1` yielded a melting point of 172 °C.
For `CCS(=O)(=O)c1cnc2c(c1)nc(CC(C)(C)C)n2CC1CCOCC1`, the melting point was 191 °C.
For `CC(C)S(=O)(=O)c1cnc2c(c1)nc(CC(C)(C)C)n2CC1(O)CCOCC1`, the melting point was 179 °C.
`CC(C)S(=O)(=O)c1cnc2c(c1)nc(CC(C)(C)C)n2CCN(C)C` gave a melting point of 119 °C.
In the case of `CC(C)S(=O)(=O)c1cnc2c(c1)nc(CC(C)(C)C)n2CC1CCOCC1`, the melting point is reported as 201 °C.
For `CCS(=O)(=O)c1ccc2c(c1)nc(CC(C)(C)C)n2CCOC(F)(F)F`, the melting point was 133 °C.
With `CC(C)S(=O)(=O)c1ccc2c(c1)nc(CC(C)(C)C)n2CCN1CCOCC1` the melting point was 151 °C.
Compound `CC(C)S(=O)(=O)c1ccc2c(c1)nc(CC(C)(C)C)n2CCN(C)C` has a melting point of 116 °C.
Work on `CC(C)(C)Cc1nc2cc(S(C)(=O)=O)ccc2n1CC1CC1` (as salt: hydrochloride) yielded a melting point of 217 °C.

Source: US7598393B2 (dated 2009)
